For the first assay, the system named is 843126-344-R-J1-PDC complex spheroid viability. Briefly: Anticancer human tumor 843126-344-R-J1-PDC patient-derived melanoma cell line growth inhibition [POLQ]. The settings on record: second compound 0.0316 µM; first compound 3.16 µM; hits give low values. In short, it runs like this:
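PDC + HUVEC + MSC complex spheroids; POLQ inhibitors ± partner drugs; top conc. at/near clinical Cmax, else 10 microM (SN-38 1 microM), half-log dilutions; 37 degrees C, 5% CO2.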
A word on the viability, T/C: it is the ratio of treated to control. In the case of `CCCS(=O)(=O)Nc1ccc(F)c(C(=O)c2c[nH]c3ncc(-c4ccc(Cl)cc4)cc23)c1F` + COC1C(OC(N)=O)C(O)C(Oc2ccc3c(O)c(NC(=O)c4ccc(O)c(CC=C(C)C)c4)c(=O)oc3c2C)OC1(C)C, the viability, T/C was 75.6%.

Turning to `CNCc1ccc(-c2[nH]c3cc(F)cc4c3c2CCNC4=O)cc1` + COC1C(OC(N)=O)C(O)C(Oc2ccc3c(O)c(NC(=O)c4ccc(O)c(CC=C(C)C)c4)c(=O)oc3c2C)OC1(C)C, the viability, T/C was 86.8%.

In the case of `O=C(c1cc(Cc2n[nH]c(=O)c3ccccc23)ccc1F)N1CCN(C(=O)C2CC2)CC1` + COC1C(OC(N)=O)C(O)C(Oc2ccc3c(O)c(NC(=O)c4ccc(O)c(CC=C(C)C)c4)c(=O)oc3c2C)OC1(C)C, the viability, T/C was 80.7%.

Still in this assay, the particulars now being: second compound 0.0316 µM; first compound 10 µM; hits give low values.
For the molecule `CCCS(=O)(=O)Nc1ccc(F)c(C(=O)c2c[nH]c3ncc(-c4ccc(Cl)cc4)cc23)c1F` + COC1C(OC(N)=O)C(O)C(Oc2ccc3c(O)c(NC(=O)c4ccc(O)c(CC=C(C)C)c4)c(=O)oc3c2C)OC1(C)C, the viability, T/C is 60%.

For the molecule `CNCc1ccc(-c2[nH]c3cc(F)cc4c3c2CCNC4=O)cc1` + COC1C(OC(N)=O)C(O)C(Oc2ccc3c(O)c(NC(=O)c4ccc(O)c(CC=C(C)C)c4)c(=O)oc3c2C)OC1(C)C, the viability, T/C was 87%.

With `O=C(c1cc(Cc2n[nH]c(=O)c3ccccc23)ccc1F)N1CCN(C(=O)C2CC2)CC1` + COC1C(OC(N)=O)C(O)C(Oc2ccc3c(O)c(NC(=O)c4ccc(O)c(CC=C(C)C)c4)c(=O)oc3c2C)OC1(C)C, the viability, T/C was 63.8%.

The assay is the same for the next values; noted with them: second compound 0.1 µM; first compound 0.00316 µM; hits give low values.
For the molecule `COc1cccc(OCCCN)c1-c1cc(Nc2cnc(C#N)cn2)n[nH]1` + COC1C(OC(N)=O)C(O)C(Oc2ccc3c(O)c(NC(=O)c4ccc(O)c(CC=C(C)C)c4)c(=O)oc3c2C)OC1(C)C, the viability, T/C was 93.3%.

The same assay, now with this note: second compound 0.1 µM; first compound 0.01 µM; hits give low values.
Take `COc1cccc(OCCCN)c1-c1cc(Nc2cnc(C#N)cn2)n[nH]1` + COC1C(OC(N)=O)C(O)C(Oc2ccc3c(O)c(NC(=O)c4ccc(O)c(CC=C(C)C)c4)c(=O)oc3c2C)OC1(C)C: the viability, T/C is 81.8%.

Still in this assay, the particulars now being: second compound 0.1 µM; first compound 0.0316 µM; hits give low values.
For `CCCS(=O)(=O)Nc1ccc(F)c(C(=O)c2c[nH]c3ncc(-c4ccc(Cl)cc4)cc23)c1F` + COC1C(OC(N)=O)C(O)C(Oc2ccc3c(O)c(NC(=O)c4ccc(O)c(CC=C(C)C)c4)c(=O)oc3c2C)OC1(C)C, the viability, T/C was 77.5%.

Turning to `CNCc1ccc(-c2[nH]c3cc(F)cc4c3c2CCNC4=O)cc1` + COC1C(OC(N)=O)C(O)C(Oc2ccc3c(O)c(NC(=O)c4ccc(O)c(CC=C(C)C)c4)c(=O)oc3c2C)OC1(C)C, the viability, T/C was 88%.

On to `COc1cccc(OCCCN)c1-c1cc(Nc2cnc(C#N)cn2)n[nH]1` + COC1C(OC(N)=O)C(O)C(Oc2ccc3c(O)c(NC(=O)c4ccc(O)c(CC=C(C)C)c4)c(=O)oc3c2C)OC1(C)C, for which the viability, T/C was 73.2%.

Consider `O=C(c1cc(Cc2n[nH]c(=O)c3ccccc23)ccc1F)N1CCN(C(=O)C2CC2)CC1` + COC1C(OC(N)=O)C(O)C(Oc2ccc3c(O)c(NC(=O)c4ccc(O)c(CC=C(C)C)c4)c(=O)oc3c2C)OC1(C)C, for which the viability, T/C is 76.2%.

Still in this assay, the particulars now being: second compound 0.1 µM; first compound 0.1 µM; hits give low values.
For `CCCS(=O)(=O)Nc1ccc(F)c(C(=O)c2c[nH]c3ncc(-c4ccc(Cl)cc4)cc23)c1F` + COC1C(OC(N)=O)C(O)C(Oc2ccc3c(O)c(NC(=O)c4ccc(O)c(CC=C(C)C)c4)c(=O)oc3c2C)OC1(C)C, the viability, T/C is 81.7%.

On to `CNCc1ccc(-c2[nH]c3cc(F)cc4c3c2CCNC4=O)cc1` + COC1C(OC(N)=O)C(O)C(Oc2ccc3c(O)c(NC(=O)c4ccc(O)c(CC=C(C)C)c4)c(=O)oc3c2C)OC1(C)C, for which the viability, T/C was 102%.

Consider `COc1cccc(OCCCN)c1-c1cc(Nc2cnc(C#N)cn2)n[nH]1` + COC1C(OC(N)=O)C(O)C(Oc2ccc3c(O)c(NC(=O)c4ccc(O)c(CC=C(C)C)c4)c(=O)oc3c2C)OC1(C)C, for which the viability, T/C is 52%.

Regarding `O=C(c1cc(Cc2n[nH]c(=O)c3ccccc23)ccc1F)N1CCN(C(=O)C2CC2)CC1` + COC1C(OC(N)=O)C(O)C(Oc2ccc3c(O)c(NC(=O)c4ccc(O)c(CC=C(C)C)c4)c(=O)oc3c2C)OC1(C)C, the viability, T/C is 98.7%.

Staying with this assay, now noted: second compound 0.1 µM; first compound 0.316 µM; hits give low values.
`CCCS(=O)(=O)Nc1ccc(F)c(C(=O)c2c[nH]c3ncc(-c4ccc(Cl)cc4)cc23)c1F` + COC1C(OC(N)=O)C(O)C(Oc2ccc3c(O)c(NC(=O)c4ccc(O)c(CC=C(C)C)c4)c(=O)oc3c2C)OC1(C)C: the viability, T/C is 84.5%.

For `CNCc1ccc(-c2[nH]c3cc(F)cc4c3c2CCNC4=O)cc1` + COC1C(OC(N)=O)C(O)C(Oc2ccc3c(O)c(NC(=O)c4ccc(O)c(CC=C(C)C)c4)c(=O)oc3c2C)OC1(C)C, the viability, T/C is 115%.

Regarding `COc1cccc(OCCCN)c1-c1cc(Nc2cnc(C#N)cn2)n[nH]1` + COC1C(OC(N)=O)C(O)C(Oc2ccc3c(O)c(NC(=O)c4ccc(O)c(CC=C(C)C)c4)c(=O)oc3c2C)OC1(C)C, the viability, T/C was 44.1%.

As to `O=C(c1cc(Cc2n[nH]c(=O)c3ccccc23)ccc1F)N1CCN(C(=O)C2CC2)CC1` + COC1C(OC(N)=O)C(O)C(Oc2ccc3c(O)c(NC(=O)c4ccc(O)c(CC=C(C)C)c4)c(=O)oc3c2C)OC1(C)C, the viability, T/C was 90.2%.

The assay is the same for the next values; noted with them: second compound 0.1 µM; first compound 1 µM; hits give low values.
On to `CCCS(=O)(=O)Nc1ccc(F)c(C(=O)c2c[nH]c3ncc(-c4ccc(Cl)cc4)cc23)c1F` + COC1C(OC(N)=O)C(O)C(Oc2ccc3c(O)c(NC(=O)c4ccc(O)c(CC=C(C)C)c4)c(=O)oc3c2C)OC1(C)C, for which the viability, T/C is 64.5%.

As to `CNCc1ccc(-c2[nH]c3cc(F)cc4c3c2CCNC4=O)cc1` + COC1C(OC(N)=O)C(O)C(Oc2ccc3c(O)c(NC(=O)c4ccc(O)c(CC=C(C)C)c4)c(=O)oc3c2C)OC1(C)C, the viability, T/C is 94.3%.

Consider `COc1cccc(OCCCN)c1-c1cc(Nc2cnc(C#N)cn2)n[nH]1` + COC1C(OC(N)=O)C(O)C(Oc2ccc3c(O)c(NC(=O)c4ccc(O)c(CC=C(C)C)c4)c(=O)oc3c2C)OC1(C)C, for which the viability, T/C is 34.7%.

Regarding `O=C(c1cc(Cc2n[nH]c(=O)c3ccccc23)ccc1F)N1CCN(C(=O)C2CC2)CC1` + COC1C(OC(N)=O)C(O)C(Oc2ccc3c(O)c(NC(=O)c4ccc(O)c(CC=C(C)C)c4)c(=O)oc3c2C)OC1(C)C, the viability, T/C was 71.9%.

The same assay, now with this note: second compound 0.1 µM; first compound 3.16 µM; hits give low values.
With `CCCS(=O)(=O)Nc1ccc(F)c(C(=O)c2c[nH]c3ncc(-c4ccc(Cl)cc4)cc23)c1F` + COC1C(OC(N)=O)C(O)C(Oc2ccc3c(O)c(NC(=O)c4ccc(O)c(CC=C(C)C)c4)c(=O)oc3c2C)OC1(C)C, the viability, T/C is 72.5%.

Turning to `CNCc1ccc(-c2[nH]c3cc(F)cc4c3c2CCNC4=O)cc1` + COC1C(OC(N)=O)C(O)C(Oc2ccc3c(O)c(NC(=O)c4ccc(O)c(CC=C(C)C)c4)c(=O)oc3c2C)OC1(C)C, the viability, T/C was 99.7%.

In the case of `O=C(c1cc(Cc2n[nH]c(=O)c3ccccc23)ccc1F)N1CCN(C(=O)C2CC2)CC1` + COC1C(OC(N)=O)C(O)C(Oc2ccc3c(O)c(NC(=O)c4ccc(O)c(CC=C(C)C)c4)c(=O)oc3c2C)OC1(C)C, the viability, T/C was 80.7%.

Still in this assay, the particulars now being: second compound 0.1 µM; first compound 10 µM; hits give low values.
`CCCS(=O)(=O)Nc1ccc(F)c(C(=O)c2c[nH]c3ncc(-c4ccc(Cl)cc4)cc23)c1F` + COC1C(OC(N)=O)C(O)C(Oc2ccc3c(O)c(NC(=O)c4ccc(O)c(CC=C(C)C)c4)c(=O)oc3c2C)OC1(C)C: the viability, T/C was 72.5%.

Turning to `CNCc1ccc(-c2[nH]c3cc(F)cc4c3c2CCNC4=O)cc1` + COC1C(OC(N)=O)C(O)C(Oc2ccc3c(O)c(NC(=O)c4ccc(O)c(CC=C(C)C)c4)c(=O)oc3c2C)OC1(C)C, the viability, T/C is 87.1%.

In the case of `O=C(c1cc(Cc2n[nH]c(=O)c3ccccc23)ccc1F)N1CCN(C(=O)C2CC2)CC1` + COC1C(OC(N)=O)C(O)C(Oc2ccc3c(O)c(NC(=O)c4ccc(O)c(CC=C(C)C)c4)c(=O)oc3c2C)OC1(C)C, the viability, T/C is 61.6%.

The same assay, now with this note: second compound 0.316 µM; first compound 0.00316 µM; hits give low values.
On to `COc1cccc(OCCCN)c1-c1cc(Nc2cnc(C#N)cn2)n[nH]1` + COC1C(OC(N)=O)C(O)C(Oc2ccc3c(O)c(NC(=O)c4ccc(O)c(CC=C(C)C)c4)c(=O)oc3c2C)OC1(C)C, for which the viability, T/C is 79.9%.

The assay is the same for the next values; noted with them: second compound 0.316 µM; first compound 0.01 µM; hits give low values.
As to `COc1cccc(OCCCN)c1-c1cc(Nc2cnc(C#N)cn2)n[nH]1` + COC1C(OC(N)=O)C(O)C(Oc2ccc3c(O)c(NC(=O)c4ccc(O)c(CC=C(C)C)c4)c(=O)oc3c2C)OC1(C)C, the viability, T/C is 76.8%.

Staying with this assay, now noted: second compound 0.316 µM; first compound 0.0316 µM; hits give low values.
For `CCCS(=O)(=O)Nc1ccc(F)c(C(=O)c2c[nH]c3ncc(-c4ccc(Cl)cc4)cc23)c1F` + COC1C(OC(N)=O)C(O)C(Oc2ccc3c(O)c(NC(=O)c4ccc(O)c(CC=C(C)C)c4)c(=O)oc3c2C)OC1(C)C, the viability, T/C was 78.5%.

As for `CNCc1ccc(-c2[nH]c3cc(F)cc4c3c2CCNC4=O)cc1` + COC1C(OC(N)=O)C(O)C(Oc2ccc3c(O)c(NC(=O)c4ccc(O)c(CC=C(C)C)c4)c(=O)oc3c2C)OC1(C)C, the viability, T/C is 98.7%.

`COc1cccc(OCCCN)c1-c1cc(Nc2cnc(C#N)cn2)n[nH]1` + COC1C(OC(N)=O)C(O)C(Oc2ccc3c(O)c(NC(=O)c4ccc(O)c(CC=C(C)C)c4)c(=O)oc3c2C)OC1(C)C: the viability, T/C is 65.3%.

With `O=C(c1cc(Cc2n[nH]c(=O)c3ccccc23)ccc1F)N1CCN(C(=O)C2CC2)CC1` + COC1C(OC(N)=O)C(O)C(Oc2ccc3c(O)c(NC(=O)c4ccc(O)c(CC=C(C)C)c4)c(=O)oc3c2C)OC1(C)C, the viability, T/C was 91.8%.

The assay is the same for the next values; noted with them: second compound 0.316 µM; first compound 0.1 µM; hits give low values.
For the molecule `CCCS(=O)(=O)Nc1ccc(F)c(C(=O)c2c[nH]c3ncc(-c4ccc(Cl)cc4)cc23)c1F` + COC1C(OC(N)=O)C(O)C(Oc2ccc3c(O)c(NC(=O)c4ccc(O)c(CC=C(C)C)c4)c(=O)oc3c2C)OC1(C)C, the viability, T/C is 97.1%.

Regarding `CNCc1ccc(-c2[nH]c3cc(F)cc4c3c2CCNC4=O)cc1` + COC1C(OC(N)=O)C(O)C(Oc2ccc3c(O)c(NC(=O)c4ccc(O)c(CC=C(C)C)c4)c(=O)oc3c2C)OC1(C)C, the viability, T/C was 88.6%.

`COc1cccc(OCCCN)c1-c1cc(Nc2cnc(C#N)cn2)n[nH]1` + COC1C(OC(N)=O)C(O)C(Oc2ccc3c(O)c(NC(=O)c4ccc(O)c(CC=C(C)C)c4)c(=O)oc3c2C)OC1(C)C: the viability, T/C was 54.9%.

Take `O=C(c1cc(Cc2n[nH]c(=O)c3ccccc23)ccc1F)N1CCN(C(=O)C2CC2)CC1` + COC1C(OC(N)=O)C(O)C(Oc2ccc3c(O)c(NC(=O)c4ccc(O)c(CC=C(C)C)c4)c(=O)oc3c2C)OC1(C)C: the viability, T/C is 71.1%.

The same assay, now with this note: second compound 0.316 µM; first compound 0.316 µM; hits give low values.
In the case of `CCCS(=O)(=O)Nc1ccc(F)c(C(=O)c2c[nH]c3ncc(-c4ccc(Cl)cc4)cc23)c1F` + COC1C(OC(N)=O)C(O)C(Oc2ccc3c(O)c(NC(=O)c4ccc(O)c(CC=C(C)C)c4)c(=O)oc3c2C)OC1(C)C, the viability, T/C is 86.3%.

As to `CNCc1ccc(-c2[nH]c3cc(F)cc4c3c2CCNC4=O)cc1` + COC1C(OC(N)=O)C(O)C(Oc2ccc3c(O)c(NC(=O)c4ccc(O)c(CC=C(C)C)c4)c(=O)oc3c2C)OC1(C)C, the viability, T/C was 90.7%.
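Also: spheroids exposed to drugs for seven days before readout.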
